Results published in US20240391936A1, “TETRAHYDROTHIENO PYRIDINE DERIVATIVES AS DDRS INHIBITORS” (CHIESI FARMACEUTICI S.P.A., priority 2021, published 2024).
pIC50, pKi: −log10 of the molar value.

What was measured:
DDR1 [1] = target: T1, DDR1 (Homo sapiens, UniProt Q08345); assay: DDR1 binding assay (LanthaScreen Europium Kinase Binding assay); set-up: purchased Carna Biosciences; settings: binding assay, 5 nM DDR1, 20 nM Kinase Tracer 178; Ki from IC50 by Cheng-Prusoff; read-out: Ki DDR1
How it was run: (§1)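 Compounds incubated 1 h at room temperature with 5 nM kinase, Kinase Tracer 178 (20 nM for DDR1, 10 nM for DDR2) and 2 nM Eu-anti-GST antibody in pH 7.5 HEPES/MgCl2/EGTA/BRIJ35 buffer. TR-FRET 665/615 nm ratio read after 340 nm excitation; IC50 from 4-parameter fit, converted to Ki by Cheng-Prusoff.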

DDR2 [2] = target: T2, DDR2 (Homo sapiens, UniProt Q16832); assay: DDR2 binding assay (LanthaScreen Europium Kinase Binding assay); set-up: purchased Life Technologies; settings: binding assay, 5 nM DDR2, 10 nM Kinase Tracer 178; Ki from IC50 by Cheng-Prusoff; read-out: Ki DDR2
T2 sequence (Q16832 22-855): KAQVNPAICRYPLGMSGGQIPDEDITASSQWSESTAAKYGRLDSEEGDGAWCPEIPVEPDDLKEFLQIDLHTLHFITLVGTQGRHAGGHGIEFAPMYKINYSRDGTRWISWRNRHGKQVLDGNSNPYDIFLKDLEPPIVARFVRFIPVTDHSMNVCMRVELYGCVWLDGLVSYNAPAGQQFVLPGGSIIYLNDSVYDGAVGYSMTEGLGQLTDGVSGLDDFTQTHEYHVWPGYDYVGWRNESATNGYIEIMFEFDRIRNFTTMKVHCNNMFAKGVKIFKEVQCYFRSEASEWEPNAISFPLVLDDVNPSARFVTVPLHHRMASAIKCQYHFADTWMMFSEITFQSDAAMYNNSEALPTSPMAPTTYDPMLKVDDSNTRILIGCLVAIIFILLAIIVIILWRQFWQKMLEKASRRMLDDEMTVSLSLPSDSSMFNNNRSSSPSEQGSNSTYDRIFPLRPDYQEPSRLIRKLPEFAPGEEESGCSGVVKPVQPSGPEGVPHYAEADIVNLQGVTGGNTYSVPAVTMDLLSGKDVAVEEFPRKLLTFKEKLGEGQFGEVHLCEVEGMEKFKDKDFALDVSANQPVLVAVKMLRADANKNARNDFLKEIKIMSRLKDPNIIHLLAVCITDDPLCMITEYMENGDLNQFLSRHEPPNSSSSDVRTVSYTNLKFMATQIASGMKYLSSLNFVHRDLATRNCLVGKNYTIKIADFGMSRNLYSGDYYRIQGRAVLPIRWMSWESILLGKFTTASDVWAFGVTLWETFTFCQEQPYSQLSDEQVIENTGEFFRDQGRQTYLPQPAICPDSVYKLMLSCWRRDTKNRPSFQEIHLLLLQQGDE
How it was run: as §1

DDR2 [3] = target: T2, DDR2; assay: DDR2 cell based assay (phospho-ELISA in HEK293T-DDR2 recombinant cells); set-up: expressed in transfected cells; host or cells: HEK293T-DDR2 recombinant cells; settings: bovine Type II Collagen 50 μg/ml
How it was run: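 HEK293T-DDR2 cells, serum-starved 3 h, treated with compounds 30 min before 3 h stimulation with bovine type II collagen at 50 μg/ml. Lysate phospho-DDR2 measured by ELISA, normalized to maximal-inhibition and collagen II (20 μg/ml) controls; IC50 from variable-slope sigmoidal fit.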

DDR1 [4] = target: T1, DDR1; assay: DDR1 cell based assay (PathHunter U2OS DDR1 assay); set-up: host or cells: U2OS-DDR1 (PathHunter); settings: U2OS-DDR1 cells, bovine Type II Collagen 20 μg/ml
How it was run: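 U2OS-DDR1 PathHunter cells preincubated 30 min with compound, then stimulated overnight at 37 °C with 20 μg/ml bovine type II collagen. Luminescent complementation signal read after 1 h detection at room temperature; normalized to vehicle (0%) and collagen-only (100%) controls, IC50 from variable-slope sigmoidal fit.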

T1 sequence (Q08345 19-913): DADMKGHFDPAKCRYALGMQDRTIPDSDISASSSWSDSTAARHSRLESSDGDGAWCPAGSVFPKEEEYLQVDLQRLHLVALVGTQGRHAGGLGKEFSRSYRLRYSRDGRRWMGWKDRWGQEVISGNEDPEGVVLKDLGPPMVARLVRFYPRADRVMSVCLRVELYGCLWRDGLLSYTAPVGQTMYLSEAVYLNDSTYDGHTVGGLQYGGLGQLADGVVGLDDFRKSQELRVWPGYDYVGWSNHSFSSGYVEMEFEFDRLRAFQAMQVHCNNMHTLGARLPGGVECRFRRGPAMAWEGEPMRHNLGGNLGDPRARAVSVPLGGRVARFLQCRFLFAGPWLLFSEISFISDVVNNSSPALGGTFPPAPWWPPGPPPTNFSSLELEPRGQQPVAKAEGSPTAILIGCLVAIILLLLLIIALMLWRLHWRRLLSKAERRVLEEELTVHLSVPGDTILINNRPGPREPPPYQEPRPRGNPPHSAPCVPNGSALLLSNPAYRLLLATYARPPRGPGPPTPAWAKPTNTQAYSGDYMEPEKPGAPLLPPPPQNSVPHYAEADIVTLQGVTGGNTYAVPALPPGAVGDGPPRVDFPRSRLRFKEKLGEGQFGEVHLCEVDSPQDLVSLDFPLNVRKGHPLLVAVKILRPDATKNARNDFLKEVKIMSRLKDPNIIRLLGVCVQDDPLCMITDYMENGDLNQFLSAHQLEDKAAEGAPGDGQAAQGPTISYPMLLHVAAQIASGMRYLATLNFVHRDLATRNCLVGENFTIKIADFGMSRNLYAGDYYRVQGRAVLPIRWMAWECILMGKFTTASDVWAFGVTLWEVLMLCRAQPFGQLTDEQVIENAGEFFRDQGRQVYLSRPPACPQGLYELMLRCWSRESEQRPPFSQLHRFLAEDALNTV

Row | SMILES | pKi (DDR1 [1]) | pKi (DDR2 [2]) | pIC50 (DDR2 [3]) | pIC50 (DDR1 [4])
1 | O=C(Nc1cccc(C(F)(F)F)c1)c1csc2c1CCN(Cc1ccnc3[nH]ccc13)C2 [Example 86, 6-((1H-pyrrolo[2,3-b]pyridin-4-yl)methyl)-N-(3-(trifluoromethyl)phenyl)-4,5,6,7-tetrahydrothieno[2,3-c]pyridine-3-carboxamide] | > 7.60 | > 7.60 | > 7.60 | > 7.60
2 | CC(C)(C)c1cc(NC(=O)c2csc3c2CCN(Cc2cnc4[nH]ncc4c2)C3)no1 [Example 134, 6-((1H-pyrazolo[3,4-b]pyridin-5-yl)methyl)-N-(5-(tert-butyl)isoxazol-3-yl)-4,5,6,7-tetrahydrothieno[2,3-c]pyridine-3-carboxamide] | > 7.60 | > 7.60 | > 7.60 | > 7.60
3 | O=C(Nc1cncc(C(F)(F)F)c1)c1csc2c1CCN(Cc1cnc3ccnn3c1)C2 [Example 152, 6-(pyrazolo[1,5-a]pyrimidin-6-ylmethyl)-N-(5-(trifluoromethyl)pyridin-3-yl)-4,5,6,7-tetrahydrothieno[2,3-c]pyridine-3-carboxamide] | > 7.60 | > 7.60 | > 7.60 | > 7.60
4 | Cc1cn(-c2cc(NC(=O)c3csc4c3CCN(C(=O)c3cnc5ccccn35)[C@@H]4C)cc(C(F)(F)F)c2)cn1 [Example 101, (R)-6-(imidazo[1,2-a]pyridine-3-carbonyl)-7-methyl-N-(3-(4-methyl-1H-imidazol-1-yl)-5-(trifluoromethyl)phenyl)-4,5,6,7-tetrahydrothieno[2,3-c]pyridine-3-carboxamide] | > 7.60 | > 7.60 | > 7.60 | > 7.60
5 | Cn1nc(C(C)(C)C)cc1NC(=O)c1csc2c1CCN(Cc1cnc3[nH]ccc3c1)C2 [Example 70, 6-((1H-pyrrolo[2,3-b]pyridin-5-yl)methyl)-N-(3-(tert-butyl)-1-methyl-1H-pyrazol-5-yl)-4,5,6,7-tetrahydrothieno[2,3-c]pyridine-3-carboxamide] | > 7.60 | > 7.60 | 7.30 to 7.60 | > 7.60

Now from value to compound:

Row | pKi (DDR1 [1]) | pKi (DDR2 [2]) | pIC50 (DDR2 [3]) | pIC50 (DDR1 [4]) | SMILES
6 | > 7.60 | > 7.60 | > 7.60 | > 7.60 | O=C(Nc1cc(CN2CCOCC2)cc(C(F)(F)F)c1)c1csc2c1CCN(C(=O)c1cnc3ccccn13)C2 [Example 20, 6-(imidazo[1,2-a]pyridine-3-carbonyl)-N-(3-(morpholinomethyl)-5-(trifluoromethyl)phenyl)-4,5,6,7-tetrahydrothieno[2,3-c]pyridine-3-carboxamide]
7 | > 7.60 | > 7.60 | > 7.60 | > 7.60 | COc1ccc(NC(=O)c2csc3c2CCN(C(=O)c2cnc4ccccn24)C3)cc1C(F)(F)F [Example 4, 6-(imidazo[1,2-a]pyridine-3-carbonyl)-N-(4-methoxy-3-(trifluoromethyl)phenyl)-4,5,6,7-tetrahydrothieno[2,3-c]pyridine-3-carboxamide]
8 | > 7.60 | > 7.60 | > 7.60 | > 7.60 | CN1CCN(c2ccc3ncc(C(=O)N4CCc5c(C(=O)Nc6cccc(C(F)(F)F)c6)csc5C4)n3c2)CC1 [Example 136, 6-(6-(4-methylpiperazin-1-yl)imidazo[1,2-a]pyridine-3-carbonyl)-N-(3-(trifluoromethyl)phenyl)-4,5,6,7-tetrahydrothieno[2,3-c]pyridine-3-carboxamide]
9 | > 7.60 | > 7.60 | > 7.60 | > 7.60 | Cc1cn(-c2cc(NC(=O)c3csc4c3CCN(C(=O)c3cnc5ccccn35)C4)cc(C(F)(F)F)c2)cn1 [Example 74, 6-(imidazo[1,2-a]pyridine-3-carbonyl)-N-(3-(4-methyl-1H-imidazol-1-yl)-5-(trifluoromethyl)phenyl)-4,5,6,7-tetrahydrothieno[2,3-c]pyridine-3-carboxamide]
10 | > 7.60 | > 7.60 | > 7.60 | > 7.60 | O=C(Nc1cc(F)cc(C(F)(F)F)c1)c1csc2c1CCN(C(=O)c1cnc3ccccn13)C2 [Example 46, N-(3-fluoro-5-(trifluoromethyl)phenyl)-6-(imidazo[1,2-a]pyridine-3-carbonyl)-4,5,6,7-tetrahydrothieno[2,3-c]pyridine-3-carboxamide]
